Experimental data published in patent US7071311B2, “Antibodies having specificity for 2′-C-allyl nucleic acids” (Sirna Therapeutics, Inc., priority 2002, dated 2006).

Assays:
CA1USR mAb = assay: Competition enzyme immunoassay (EIA): nucleotide competitors against CA1USR mAb binding to 2′-deoxy-2′-C-allyl Uridine-KLH; parameters: species or system murine; conditions: competitor nucleotides 500 to 7.8 μg/ml preincubated with CA1USR mAb; DNA-Bind plates coated with 2′-deoxy-2′-C-allyl Uridine-KLH; FIG. 2
Method: N-oxy-succinimide ester derivatized 96 well plates (DNA-Bind; Costar/Corning, Corning, N.Y.) were coated overnight at room temperature with 50 ng/well of 2′-deoxy-2′-C-allyl Uridine-KLH. After two washes with phosphate buffered saline, 0.1% Tween (PBS-T), plates were blocked for 1 h with PBS plus 1% casein (Pierce, Rockford, Ill.). Hybridoma supernatant was incubated on the plates for 1 h, after which wells were washed 4 times with PBS-T. Positive wells were detected with peroxidase-conjugated F(ab)′2 Goat anti-mouse IgG (Pel-Freez, Rogers, Ark.), and developed with TMB substrate (Kirkegaard and Perry, 2 component; Gaithersburg, Md.). Plates were read on a Molecular Dynamics plate reader (Molecular Dynamics, Sunnyvale, Calif.) at 450 nm with 595 nm correction.
DNA-Bind plates were coated overnight with 50 ng/well of 2′-deoxy-2′-C-allyl Uridine-conjugated KLH. 60 μl volumes of the purified CA1USR mAb, at a concentration of 500 ng/ml, were incubated at 37° C. for 30 min with 60 μl volumes of a series of concentrations of competitor nucleotides, from a concentration of 500 to 7.8 μg/ml. The antibody-competitor mixtures were then plated on the 2′-C-allyl-KLH coated DNA-Bind plates, and the EIA proceeded as described for the fusion screening assay.

[1] = Immunohistochemistry with CA1USR mAb on kidneys of ribozyme-treated mice (in vivo localization); conditions: for CA1USR mAb immunoreactivity (staining) in kidney: 3 subcutaneous injections of 100 mg/kg, kidney sections stained with CA1USR mAb 5 μg/ml
Method: Tissues were harvested from mice injected subcutaneously with either saline or a ribozyme from 60 to 120 min after injection. Animals were perfused with normal saline, then with a solution of 3% paraformaldehyde, 0.5% gluteraldehyde prior to tissue harvest. The tissue was placed in a 30% sucrose solution at 4° C. overnight, then removed, and frozen in a Gentle Jane (Instrumedics; Hackensack, N.J.) Snap-Freezing System with Cryo-Gel Embedding Medium (Instrumedics). Five micron (μm) sections were cut and placed on slides; the slides were allowed to air dry. Prior to staining, slides were quenched in 3% hydrogen peroxide and 0.5% horse serum in PBS, then blocked with M.O.M. Mouse Ig Blocking Reagent (Vector Labs, Burlingame, Calif.) for 1 h, washed with PBS, and stained with the CA1USR MAb at 5 μg/ml in M.O.M. diluent for 30 min. After washing, slides were incubated with M.O.M. Biotinylated Anti-Mouse IgG Reagent for 10 min, washed, and incubated with Vectastain Elite ABC Reagent for 5 min, then developed in DAB chromogen (Vector Labs). Slides were rinsed, counterstained with hematoxylin (Richard-Allan Scientific, Kalamazoo, Mich.), dehydrated, and cover-slipped. Slides were viewed on a Nikon Microphot FXA microscope.

Row | inhibition of binding of CA1USR mAb to 2′-deoxy-2′-C-allyl Uridine-KLH (CA1USR mAb) | Compound | Hematoxylin and eosin microscopy of granular structures in treated kidneys ([1]; 3 subcutaneous 100 mg/kg injections, kidney) | CA1USR mAb immunoreactivity (staining) in kidney [1]
1 | able to inhibit | C=CC[C@@H]1[C@H](O)[C@@H](CO)O[C@H]1n1ccc(=O)[nH]c1=O [2′-deoxy-2′-C-allyl Uridine] |  | 
2 |  | ANGIOZYME® ribozyme: synthetic 35-mer hammerhead ribozyme directed against VEGFR-1 mRNA with 2′-deoxy-2′-C-allyl Uridine at U4 (GAGUUGCUGAUGAGGCCGAAAGGCCGAAAGUCUG; 2'-deoxy-2'-C-allyl uridine at U4, chemistry not fully specified) | basophilic in character | intense 2′-deoxy-2′-C-allyl Uridine mAb immunoreactivity
3 |  | unmodified HERZYME™ ribozyme: ribozyme targeted to Her2 mRNA, structure different from the hammerhead motif (GCAGUGGCCGAAAGGCGAGUGAGGUCUAGCUCA; called unmodified, meaning without 2'-C-allyl U14, full chemistry not given here) |  | no staining
